Tests used:
[1] = Visual evaluation of the alkalizers' lightening power; conditions: conclusion from Tables 5 and 6, comparison of alkalizers
Text: The examples above show hair lightening and hair coloring compositions. […]

[2] = Minolta L.A.B. (CIELAB) evaluation of lightening power on hair tresses; conditions: FIG. 1
Method: In all examples, the ΔE values were measured using a L.A.B. reading using the color measurement method of CIELAB which is used to mathematically compute and compare the color of hair tresses. The method was developed by CIE using L*, a* and b* values. L* represents the difference between light (where L*=100) and dark (where L* is 0); a represents the difference between green ([…]) and red (+a*); and b* represents the difference between yellow (+b*) and blue (−b*). This system then maps true color to a place on a three dimensional graph wherein the variables are calculated by the changes in their values and those changes are used to compute the ΔE value which is a change in color. Such a system is commercially known and used in the art.

| SMILES | lift on the darker hair [1] | lift when added to ammonium hydroxide and MEA, versus the same component alone [2] |
| --- | --- | --- |
| N [ammonium hydroxide] | highest amount of lift | – |
| O=[Si]([O-])[O-].[Na+].[Na+] [sodium metasilicate] | – | synergistic lift |
